Assay results published in ChEMBL document CHEMBL2203010, “The discovery of tropane-derived CCR5 receptor antagonists” (Chem Biol Drug Des, 2006).

Assays:
[1] = target: T1, Voltage-gated inwardly rectifying potassium channel KCNH2 (Homo sapiens, UniProt Q12809); assay: Inhibition of human ERG
[2] = target: T1, Voltage-gated inwardly rectifying potassium channel KCNH2; assay: Displacement of [3H]dofetilide from human ERG
[3] = Dissociation constant, pKa of the compound; assay type: physicochemical
[4] = target: C-C chemokine receptor type 5 (Homo sapiens, UniProt P51681); assay: Displacement of [125I]MIP-1beta from CCR5 receptor
[5] = test system: Human immunodeficiency virus 1; assay: Antiviral activity against HIV1 BaL infected in peripheral blood lymphocytes assessed as inhibition of viral replication; assay type: functional; details: Human immunodeficiency virus 1, BaL
[6] = test system: Human immunodeficiency virus 1; assay: Antiviral activity against CCR5-tropic HIV1 clade B infected in peripheral blood lymphocytes assessed as inhibition of viral replication; assay type: functional, organism-based; details: Human immunodeficiency virus 1, clade B
[7] = test system: Human immunodeficiency virus 1; assay: Antiviral activity against CCR5-tropic HIV1 clade A infected in peripheral blood lymphocytes assessed as inhibition of viral replication; assay type: functional, organism-based; details: Human immunodeficiency virus 1, clade A
hERG (KCNH2) = hERG (KCNH2) (Homo sapiens, UniProt Q12809); assay: Inhibition of human ERG at 1 uM
hERG (KCNH2), sequence (Q12809 whole entry): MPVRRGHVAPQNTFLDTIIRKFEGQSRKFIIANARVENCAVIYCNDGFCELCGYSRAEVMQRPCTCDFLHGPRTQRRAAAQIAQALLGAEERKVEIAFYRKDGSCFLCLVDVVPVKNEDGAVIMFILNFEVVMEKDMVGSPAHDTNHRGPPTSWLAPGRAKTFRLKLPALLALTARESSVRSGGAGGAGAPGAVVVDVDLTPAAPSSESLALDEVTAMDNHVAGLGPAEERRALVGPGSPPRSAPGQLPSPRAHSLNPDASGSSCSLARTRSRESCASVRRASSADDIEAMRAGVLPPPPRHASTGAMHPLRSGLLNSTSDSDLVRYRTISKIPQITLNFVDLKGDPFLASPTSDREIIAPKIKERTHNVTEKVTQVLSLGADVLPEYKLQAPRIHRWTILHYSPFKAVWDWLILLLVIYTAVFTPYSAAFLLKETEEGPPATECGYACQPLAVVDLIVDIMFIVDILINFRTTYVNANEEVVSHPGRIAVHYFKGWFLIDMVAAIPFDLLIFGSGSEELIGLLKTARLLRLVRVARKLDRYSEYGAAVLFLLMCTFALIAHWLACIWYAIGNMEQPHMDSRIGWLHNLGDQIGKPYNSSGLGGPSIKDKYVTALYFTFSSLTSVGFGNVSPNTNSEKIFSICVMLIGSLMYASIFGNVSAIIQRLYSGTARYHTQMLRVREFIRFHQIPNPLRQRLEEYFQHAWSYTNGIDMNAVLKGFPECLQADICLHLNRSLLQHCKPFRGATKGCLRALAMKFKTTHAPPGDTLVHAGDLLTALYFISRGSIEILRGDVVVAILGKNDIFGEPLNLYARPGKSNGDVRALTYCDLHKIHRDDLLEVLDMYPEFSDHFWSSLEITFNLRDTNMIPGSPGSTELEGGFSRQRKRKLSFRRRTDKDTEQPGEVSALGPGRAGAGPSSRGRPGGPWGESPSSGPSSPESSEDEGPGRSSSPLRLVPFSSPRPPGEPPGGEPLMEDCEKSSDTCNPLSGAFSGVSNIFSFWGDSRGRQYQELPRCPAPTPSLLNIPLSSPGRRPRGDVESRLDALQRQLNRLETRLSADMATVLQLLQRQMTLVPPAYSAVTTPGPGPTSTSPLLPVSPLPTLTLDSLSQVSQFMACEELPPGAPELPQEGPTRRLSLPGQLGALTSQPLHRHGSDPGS

C-C chemokine receptor type 5, sequence (P51681 whole entry): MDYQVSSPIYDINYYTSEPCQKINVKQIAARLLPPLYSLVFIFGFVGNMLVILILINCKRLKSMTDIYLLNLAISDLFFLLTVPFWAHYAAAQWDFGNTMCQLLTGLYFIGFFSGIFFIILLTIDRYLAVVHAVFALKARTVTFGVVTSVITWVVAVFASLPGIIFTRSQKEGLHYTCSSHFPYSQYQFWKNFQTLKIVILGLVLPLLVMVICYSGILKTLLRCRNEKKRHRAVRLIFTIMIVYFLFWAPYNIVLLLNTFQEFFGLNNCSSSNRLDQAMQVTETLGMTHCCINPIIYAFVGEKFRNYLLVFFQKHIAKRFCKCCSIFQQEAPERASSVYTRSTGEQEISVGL
T1 sequence (Q12809 whole entry): as the sequence (Q12809 whole entry) above

| Structure (SMILES) | inhibition (INH) [1] | Ki [2] [µM] | pKa [3] | IC50 [4] [µM] | IC90 [5] [µM] | IC50 [6] [µM] | IC50 [7] [µM] | inhibition at 1 µM (hERG (KCNH2)) [%] |
| --- | --- | --- | --- | --- | --- | --- | --- | --- |
| Cc1nc2ccccc2n1[C@@H]1C[C@H]2COC[C@@H](C1)N2CC[C@H](NC(=O)C1CCC1)c1ccccc1 | Active | 0.042 | 6 | 0.009 | – | – | – | – |
| Cc1nc2ccccc2n1[C@@H]1C[C@@H](C)N(CC[C@H](NC(=O)C2CCC2)c2ccccc2)[C@@H](C)C1 | Active | – | – | 0.008 | 0.053 | – | – | – |
| Cc1nc2ccccc2n1C1CCN(CC[C@H](NC(=O)C2CCC2)c2ccccc2)CC1 | – | – | – | 0.02 | 0.073 | – | – | – |
| Cc1nc2ccccc2n1[C@@H]1C[C@H]2CC[C@@H](C1)N2CC[C@H](NC(=O)C1CCC1)c1ccccc1 | Active | – | – | – | 0.013 | – | – | – |
| Cc1nc2ccccc2n1[C@H]1C[C@H]2CC[C@@H](C1)N2CC[C@H](NC(=O)C1CCC1)c1ccccc1 | Active | – | 7.8 | – | 0.003 | 0.0009 | 0.0009 | 99 |
| Cc1nc2ccccc2n1C1CN(CC[C@H](NC(=O)C2CCC2)c2ccccc2)C1 | Active | – | – | > 1 | – | – | – | – |
| Cc1nc2ccccc2n1C1[C@H]2CN(CC[C@H](NC(=O)C3CCC3)c3ccccc3)C[C@@H]12 (some centres undefined) | Active | – | – | 0.017 | > 1 | – | – | – |
| Cc1nc2ccccc2n1C1(C)CCN(CC[C@H](NC(=O)C2CCC2)c2ccccc2)CC1 | Active | – | – | 0.0012 | 0.14 | – | – | – |
| Cc1nc2ccccc2n1[C@@H]1C[C@H]2CSC[C@@H](C1)N2CC[C@H](NC(=O)C1CCC1)c1ccccc1 | Active | – | – | 0.0215 | – | – | – | – |
| Cc1nc2ccccc2n1[C@H]1C[C@H]2COC[C@@H](C1)N2CC[C@H](NC(=O)C1CCC1)c1ccccc1 | Active | – | – | 0.0397 | – | – | – | – |
